Our source for the Dmax values is patent US20230248834A1, “DEGRADATION OF (EGFR) BY CONJUGATION OF EGFR INHIBITORS WITH E3 LIGASE LIGAND AND METHODS OF USE” (BEIGENE, LTD., priority 2020, published 2023).

Each structure is given as a SMILES string.

T1 sequence (P00533 25-1210 T790M/C797S/L858R): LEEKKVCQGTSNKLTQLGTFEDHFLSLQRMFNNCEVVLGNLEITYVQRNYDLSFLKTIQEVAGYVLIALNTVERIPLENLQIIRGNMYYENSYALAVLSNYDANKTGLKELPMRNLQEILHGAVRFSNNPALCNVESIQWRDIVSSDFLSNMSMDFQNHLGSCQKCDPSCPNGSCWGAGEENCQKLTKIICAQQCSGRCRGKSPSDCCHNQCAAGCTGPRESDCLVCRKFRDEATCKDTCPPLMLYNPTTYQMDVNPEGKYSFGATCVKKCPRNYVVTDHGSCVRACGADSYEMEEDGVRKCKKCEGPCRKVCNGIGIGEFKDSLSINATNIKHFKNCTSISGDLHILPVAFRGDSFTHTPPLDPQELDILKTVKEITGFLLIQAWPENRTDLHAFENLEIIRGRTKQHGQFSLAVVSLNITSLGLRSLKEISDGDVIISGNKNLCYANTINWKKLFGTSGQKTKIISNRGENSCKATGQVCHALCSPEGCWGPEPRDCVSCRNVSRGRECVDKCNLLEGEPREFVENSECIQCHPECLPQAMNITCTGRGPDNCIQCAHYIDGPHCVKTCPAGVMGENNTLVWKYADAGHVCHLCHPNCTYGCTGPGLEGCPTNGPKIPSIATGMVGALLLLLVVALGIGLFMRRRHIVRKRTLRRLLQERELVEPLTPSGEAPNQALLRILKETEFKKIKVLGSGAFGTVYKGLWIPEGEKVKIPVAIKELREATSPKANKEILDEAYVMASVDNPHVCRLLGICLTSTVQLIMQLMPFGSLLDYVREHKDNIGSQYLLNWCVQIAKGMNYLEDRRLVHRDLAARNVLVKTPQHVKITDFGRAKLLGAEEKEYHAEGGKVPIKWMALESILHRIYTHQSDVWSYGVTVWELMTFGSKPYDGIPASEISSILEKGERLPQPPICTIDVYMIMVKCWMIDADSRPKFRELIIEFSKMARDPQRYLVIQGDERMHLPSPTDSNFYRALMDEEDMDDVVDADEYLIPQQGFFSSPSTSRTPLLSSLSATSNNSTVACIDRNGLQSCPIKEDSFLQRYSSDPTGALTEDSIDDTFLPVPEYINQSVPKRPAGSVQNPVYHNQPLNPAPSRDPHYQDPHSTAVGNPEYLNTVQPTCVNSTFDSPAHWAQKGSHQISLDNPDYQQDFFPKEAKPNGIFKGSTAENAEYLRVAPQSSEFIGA

The test has as its target T1, EGFR L858R/T790M/C797S (Homo sapiens, UniProt P00533, C797S/L858R/T790M).
T1 construct: expressed in transfected cells; host or cells: BaF3-LTC
As to the kind of experiment: EGFR degradation HTRF assay in BaF3-LTC cells. The test is classed as cell-based. To be noted: BaF3-LTC (L858R/T790M/C797S), maximum percentage of inhibition (degradation); read-out: BaF3-LTC Dmax (%). On the procedure:
BaF3-LTC(L858R/T790M/C797S) cells and BaF3 LC(L858R/C797S) cells are treated with compounds diluted in 0.2% DMSO cell culture medium and incubate for 16 h, 37° C., 5% CO2. the final concentration of compounds in all assay is start with 10 uM, 5-fold dilution, total 8 doses were included.
After 16 h treatment, add HTRF lysis buffer to each well; seal the plate and incubate 1 hour at room temperature on a plate shaker; Once the cells are lysed, 16 μL of cell lysate are transferred to a PE 384-well HTRF detection plate; 4 μL of pre-mixed HTRF antibodies are added to each well; Cover the plate with a plate sealer, spin 1000 rpm for 1 min, Incubate overnight at room temperature; Read on BMG PheraStar with HTRF protocol (337 nm-665 nm-620 nm).
The inhibition (degradation) percentage of the compound was calculated by the following equation: Inhibition percentage of Compound=100−100×(Signal−low control)/(High control−low control), wherein signal=each test compound group
High control=Cell group with added DMSO and without compound, indicating microplate readings without EGFR degradation;
Dmax is the maximum percentage of inhibition (degradation).
The IC50 (DC50) value of a compound can be obtained by fitting the following equation
Y=Bottom+(TOP−Bottom)/(1+((IC50/X)^hillslope))
Wherein, X and Y are known values, and IC50, Hillslope, Top and Bottom are the parameters obtained by fitting with software. Y is the inhibition percentage (calculated from the equation), X is the concentration of the compound; IC50 is the concentration of the compound when the 50% inhibition is reached. The smaller the IC50 value is, the stronger the inhibitory ability of the compound is. Vice versa, the higher the IC50 value is, the weaker the inhibitory ability of the compound is; Hillslope represents the slope of the fitted curve, generally around 1*; Bottom represents the minimum value of the curve obtained by data fitting, which is generally 0%±20%; Top represents the maximum value of the curve obtained by data fitting, which is generally 100%±20%. The experimental data were fitted by calculating and analyzing with Dotmatics data analysis software.
(In general: In TR-FRET formats the signal depends on donor and acceptor labels being close together.)
`CCOc1cc(N2CCC(N3CCN(CCc4c(F)cc(F)c5c4oc(=O)n5C4CCC(=O)NC4=O)CC3)CC2)c(CC)cc1Nc1ncc(Br)c(Nc2ccc3nc(CC)ccc3c2P(C)(C)=O)n1` (centres unmarked) [Example 731, 3-(7-(2-(4-(1-(4-((5-bromo-4-((5-(dimethylphosphoryl)-2-ethylquinolin-6-yl)amino)pyrimidin-2-yl)amino)-5-ethoxy-2-ethylphenyl)piperidin-4-yl)piperazin-1-yl)ethyl)-4,6-difluoro-2-oxobenzo[d]oxazol-3(2H)-yl)piperidine-2,6-dione]: the Dmax is 80.3%.
For `CCOc1cc(N2CCC(N3CCN(CCc4cc(F)c([C@H]5CCC(=O)NC5=O)c(F)c4)CC3)CC2)c(CC)cc1Nc1ncc(Br)c(Nc2ccc3nc(C)c(F)cc3c2P(C)(C)=O)n1` [Example 728, (R)-3-(4-(2-(4-(1-(4-((5-bromo-4-((5-(dimethylphosphoryl)-3-fluoro-2-methylquinolin-6-yl)amino)pyrimidin-2-yl)amino)-5-ethoxy-2-ethylphenyl)piperidin-4-yl)piperazin-1-yl)ethyl)-2,6-difluorophenyl)piperidine-2,6-dione] the value was 95.3%; for `CCc1cc(Nc2ncc(Br)c(Nc3ccc4nc(C)ncc4c3P(C)(C)=O)n2)c(OC)cc1N1CCC(N2CCN(C(=O)[C@H]3CN(c4cc(F)c([C@H]5CCC(=O)NC5=O)c(F)c4)CC3(C)C)CC2)CC1` [Example 740, (R)-3-(4-((R)-4-(4-(1-(4-((5-bromo-4-((5-(dimethylphosphoryl)-2-methylquinazolin-6-yl)amino)pyrimidin-2-yl)amino)-2-ethyl-5-methoxyphenyl)piperidin-4-yl)piperazine-1-carbonyl)-3,3-dimethylpyrrolidin-1-yl)-2,6-difluorophenyl)piperidine-2,6-dione], 97.2%.
In the case of `COc1cc(N2CCC(N3CCN(C(=O)[C@@H]4CCN(c5cc(F)c([C@H]6CCC(=O)NC6=O)c(F)c5)C4)CC3)CC2)c(C)cc1Nc1ncc(Br)c(Nc2ccc3nc(C)c(F)cc3c2P(C)(C)=O)n1` [Example 732, (R)-3-(4-((R)-3-(4-(1-(4-((5-bromo-4-((5-(dimethylphosphoryl)-3-fluoro-2-methylquinolin-6-yl)amino)pyrimidin-2-yl)amino)-5-methoxy-2-methylphenyl)piperidin-4-yl)piperazine-1-carbonyl)pyrrolidin-1-yl)-2,6-difluorophenyl)piperidine-2,6-dione], the Dmax was 95.5%.
For `CCOc1cc(N2CCC(N3CCN(CCc4cc(F)c([C@H]5CCC(=O)NC5=O)c(F)c4)CC3)CC2)c(CC)cc1Nc1nccc(Nc2ccc3nc(CC)ncc3c2P(C)(C)=O)n1` [Example 749, (R)-3-(4-(2-(4-(1-(4-((4-((5-(dimethylphosphoryl)-2-ethylquinazolin-6-yl)amino)pyrimidin-2-yl)amino)-5-ethoxy-2-ethylphenyl)piperidin-4-yl)piperazin-1-yl)ethyl)-2,6-difluorophenyl)piperidine-2,6-dione] the value was 35.9%; for `CCOc1cc(N2CCC(N3CCN(CCc4cc(F)c([C@H]5CCC(=O)NC5=O)c(F)c4)CC3)CC2)c(CC)cc1Nc1ncc(Cl)c(Nc2cc(F)c3nc(CC)ccc3c2P(C)(C)=O)n1` [Example 730, (R)-3-(4-(2-(4-(1-(4-((5-chloro-4-((5-(dimethylphosphoryl)-2-ethyl-8-fluoroquinolin-6-yl)amino)pyrimidin-2-yl)amino)-5-ethoxy-2-ethylphenyl)piperidin-4-yl)piperazin-1-yl)ethyl)-2,6-difluorophenyl)piperidine-2,6-dione], 83.7%; for `CCOc1cc(N2CCC(N3CCN(CCc4cccc5c4n(CC)c(=O)n5C4CCC(=O)NC4=O)CC3)CC2)c(CC)cc1Nc1ncc(Br)c(Nc2ccc3nc(CC)ncc3c2P(C)(C)=O)n1` (centres unmarked) [Example 737, 3-(4-(2-(4-(1-(4-((5-bromo-4-((5-(dimethylphosphoryl)-2-ethylquinazolin-6-yl)amino)pyrimidin-2-yl)amino)-5-ethoxy-2-ethylphenyl)piperidin-4-yl)piperazin-1-yl)ethyl)-3-ethyl-2-oxo-2,3-dihydro-1H-benzo[d]imidazol-1-yl)piperidine-2,6-dione], 97.7%.
Take `CCc1cc(Nc2ncc(Br)c(Nc3ccc4nccnc4c3P(C)(C)=O)n2)c(OC)cc1N1CCC(N2CCN(CCc3cc(F)c([C@H]4CCC(=O)NC4=O)c(F)c3)CC2)CC1` [Example 751, (R)-3-(4-(2-(4-(1-(4-((5-bromo-4-((5-(dimethylphosphoryl)quinoxalin-6-yl)amino)pyrimidin-2-yl)amino)-2-ethyl-5-methoxyphenyl)piperidin-4-yl)piperazin-1-yl)ethyl)-2,6-difluorophenyl)piperidine-2,6-dione]: the Dmax is 94.6%.
Regarding `CCOc1cc(N2CCC(N3CCN(CCc4c(F)ccc5c4n(CC)c(=O)n5C4CCC(=O)NC4=O)CC3)CC2)c(CC)cc1Nc1ncc(Br)c(Nc2ccc3nc(CC)ccc3c2P(C)(C)=O)n1` (centres unmarked) [Example 558, 3-(4-(2-(4-(1-(4-((5-bromo-4-((5-(dimethylphosphoryl)-2-ethylquinolin-6-yl)amino)pyrimidin-2-yl)amino)-5-ethoxy-2-ethylphenyl)piperidin-4-yl)piperazin-1-yl)ethyl)-3-ethyl-5-fluoro-2-oxo-2,3-dihydro-1H-benzo[d]imidazol-1-yl)piperidine-2,6-dione], the Dmax was 95.9%.
On to `[2H]C1([2H])CC([2H])(c2c(F)cc(CCN3CCN(C4CCN(c5cc(OCC)c(Nc6ncc(Br)c(Nc7ccc8nc(C)ccc8c7P(C)(C)=O)n6)cc5CC)CC4)CC3)cc2F)C(=O)NC1=O` (centres unmarked) [Example 570, 3-(4-(2-(4-(1-(4-((5-bromo-4-((5-(dimethylphosphoryl)-2-methylquinolin-6-yl)amino)pyrimidin-2-yl)amino)-5-ethoxy-2-ethylphenyl)piperidin-4-yl)piperazin-1-yl)ethyl)-2,6-difluorophenyl)piperidine-2,6-dione-3,5,5-d3], for which the Dmax was found to be 91.7%.
For `CCOc1cc(N2CCC(N3CCN(C(=O)[C@H]4CN(c5cc(F)c([C@H]6CCC(=O)NC6=O)c(F)c5)CC4(C)C)CC3)CC2)c(C)cc1Nc1ncc(Br)c(Nc2ccc3nc(C)ccc3c2P(C)(C)=O)n1` [Example 727, (R)-3-(4-((R)-4-(4-(1-(4-((5-bromo-4-((5-(dimethylphosphoryl)-2-methylquinolin-6-yl)amino)pyrimidin-2-yl)amino)-5-ethoxy-2-methylphenyl)piperidin-4-yl)piperazine-1-carbonyl)-3,3-dimethylpyrrolidin-1-yl)-2,6-difluorophenyl)piperidine-2,6-dione] the value was 97.5%; for `CCOc1cc(N2CCC(N3CCN(CCc4cc(F)c(F)c5c4n(CC)c(=O)n5C4CCC(=O)NC4=O)CC3)CC2)c(CC)cc1Nc1ncc(Br)c(Nc2ccc3nc(CC)ccc3c2P(C)(C)=O)n1` (centres unmarked) [Example 742, 3-(4-(2-(4-(1-(4-((5-bromo-4-((5-(dimethylphosphoryl)-2-ethylquinolin-6-yl)amino)pyrimidin-2-yl)amino)-5-ethoxy-2-ethylphenyl)piperidin-4-yl)piperazin-1-yl)ethyl)-3-ethyl-6,7-difluoro-2-oxo-2,3-dihydro-1H-benzo[d]imidazol-1-yl)piperidine-2,6-dione], 78.1%; for `CCc1cc(Nc2ncc(Br)c(Nc3ccc4nc(C5CC5)ccc4c3P(C)(C)=O)n2)c(OC)cc1N1CCC(N2CCN(CCc3cc(F)c([C@H]4CCC(=O)NC4=O)c(F)c3)CC2)CC1` [Example 741, (R)-3-(4-(2-(4-(1-(4-((5-bromo-4-((2-cyclopropyl-5-(dimethylphosphoryl)quinolin-6-yl)amino)pyrimidin-2-yl)amino)-2-ethyl-5-methoxyphenyl)piperidin-4-yl)piperazin-1-yl)ethyl)-2,6-difluorophenyl)piperidine-2,6-dione], 96.6%.
Consider `CCOc1cc(N2CCC(N3CCN(C(=O)[C@H]4CN(c5cc(F)c([C@H]6CCC(=O)NC6=O)c(F)c5)CC4(C)C)CC3)CC2)c(CC)cc1Nc1ncc(Br)c(Nc2cc(F)c3nc(CC)ccc3c2P(C)(C)=O)n1` [Example 746, (R)-3-(4-((R)-4-(4-(1-(4-((5-bromo-4-((5-(dimethylphosphoryl)-2-ethyl-8-fluoroquinolin-6-yl)amino)pyrimidin-2-yl)amino)-5-ethoxy-2-ethylphenyl)piperidin-4-yl)piperazine-1-carbonyl)-3,3-dimethylpyrrolidin-1-yl)-2,6-difluorophenyl)piperidine-2,6-dione], for which the Dmax was 95.5%.

As a reminder, the Dmax is the largest share of the target that was removed.
